Experimental data as given in ChEMBL document CHEMBL1154624, “Novel class of LIM-kinase 2 inhibitors for the treatment of ocular hypertension and associated glaucoma” (J Med Chem, 2009).

Columns and labels:
[1] = target: LIM domain kinase 2 (Homo sapiens, UniProt P53671); test: Inhibition of human recombinant LIMK2 expressed in baculovirus-Sf9 system by scintillation counting; format: cell-based
[2] = test system: PTM; conditions: Sus scrofa, at 10 nM
Description: Inhibition of LIMK2 in pig PTM cells assessed as inhibition of cofilin-phosphorylation at 10 nM by Western blot

[3] = test system: Mus musculus; test: Inhibition of dexamethasone-induced ocular hypertension in C57BL/6J Tyr c-Brd x 129S5/SvEvBrD hybrid mouse assessed as reduction of intraocular pressure at 3 ug after 2 hrs administered as cosolvent/HPMC based formulation; format: functional, Eye
[4] = test system: Mus musculus; test: Inhibition of dexamethasone-induced ocular hypertension in C57BL/6J Tyr c-Brd x 129S5/SvEvBrD hybrid mouse assessed as reduction of intraocular pressure at 5 ug after 1 hr administered as xanthan gum formulation; format: functional, Eye
[5] = organism: Homo sapiens; test: Selectivity ratio of IC50 for human LIMK2 to IC50 for human ROCK2
[6] = organism: Homo sapiens; test: Selectivity ratio of IC50 for human LIMK2 to IC50 for human ROCK1
[7] = Increase in outflow facility in pig eye at 100 nM by eye-perfusion assay; format: functional, Sus scrofa
[8] = target: Rho-associated protein kinase 2 (Homo sapiens, UniProt O75116); test: Inhibition of human ROCK2
[9] = test system: Mus musculus; test: Inhibition of dexamethasone-induced ocular hypertension in C57BL/6J Tyr c-Brd x 129S5/SvEvBrD hybrid mouse assessed as reduction of intraocular pressure after 2 hrs administered as cosolvent/HPMC based formulation; format: functional, organism-based; conditions: Eye
[10] = target: LIM domain kinase 1 (Homo sapiens, UniProt P53667); test: Inhibition of LIMK1
[11] = target: Rho-associated protein kinase 1 (Homo sapiens, UniProt Q13464); test: Inhibition of human ROCK1 expressed in baculovirus system
[12] = Increase in outflow facility in pig eye at 10 nM by eye-perfusion assay; format: functional, Sus scrofa

LIM domain kinase 1, sequence (P53667 whole entry, the tested form may be a part): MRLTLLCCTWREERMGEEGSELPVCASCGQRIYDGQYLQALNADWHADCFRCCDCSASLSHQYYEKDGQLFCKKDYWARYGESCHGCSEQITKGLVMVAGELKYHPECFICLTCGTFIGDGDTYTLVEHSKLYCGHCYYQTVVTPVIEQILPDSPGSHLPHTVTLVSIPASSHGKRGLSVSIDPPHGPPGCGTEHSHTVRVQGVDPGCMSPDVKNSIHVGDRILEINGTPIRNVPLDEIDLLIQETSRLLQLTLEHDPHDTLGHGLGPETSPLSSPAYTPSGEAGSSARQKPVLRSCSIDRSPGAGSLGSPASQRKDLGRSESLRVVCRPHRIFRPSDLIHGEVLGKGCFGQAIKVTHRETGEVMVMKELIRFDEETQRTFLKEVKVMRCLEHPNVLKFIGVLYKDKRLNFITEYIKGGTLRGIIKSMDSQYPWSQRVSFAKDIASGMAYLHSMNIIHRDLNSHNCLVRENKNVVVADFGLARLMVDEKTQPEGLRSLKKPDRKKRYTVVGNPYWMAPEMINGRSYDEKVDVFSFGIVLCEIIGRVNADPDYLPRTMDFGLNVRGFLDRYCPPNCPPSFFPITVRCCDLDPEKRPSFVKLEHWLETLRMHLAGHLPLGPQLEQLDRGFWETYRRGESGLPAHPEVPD
Rho-associated protein kinase 2, sequence (O75116 whole entry): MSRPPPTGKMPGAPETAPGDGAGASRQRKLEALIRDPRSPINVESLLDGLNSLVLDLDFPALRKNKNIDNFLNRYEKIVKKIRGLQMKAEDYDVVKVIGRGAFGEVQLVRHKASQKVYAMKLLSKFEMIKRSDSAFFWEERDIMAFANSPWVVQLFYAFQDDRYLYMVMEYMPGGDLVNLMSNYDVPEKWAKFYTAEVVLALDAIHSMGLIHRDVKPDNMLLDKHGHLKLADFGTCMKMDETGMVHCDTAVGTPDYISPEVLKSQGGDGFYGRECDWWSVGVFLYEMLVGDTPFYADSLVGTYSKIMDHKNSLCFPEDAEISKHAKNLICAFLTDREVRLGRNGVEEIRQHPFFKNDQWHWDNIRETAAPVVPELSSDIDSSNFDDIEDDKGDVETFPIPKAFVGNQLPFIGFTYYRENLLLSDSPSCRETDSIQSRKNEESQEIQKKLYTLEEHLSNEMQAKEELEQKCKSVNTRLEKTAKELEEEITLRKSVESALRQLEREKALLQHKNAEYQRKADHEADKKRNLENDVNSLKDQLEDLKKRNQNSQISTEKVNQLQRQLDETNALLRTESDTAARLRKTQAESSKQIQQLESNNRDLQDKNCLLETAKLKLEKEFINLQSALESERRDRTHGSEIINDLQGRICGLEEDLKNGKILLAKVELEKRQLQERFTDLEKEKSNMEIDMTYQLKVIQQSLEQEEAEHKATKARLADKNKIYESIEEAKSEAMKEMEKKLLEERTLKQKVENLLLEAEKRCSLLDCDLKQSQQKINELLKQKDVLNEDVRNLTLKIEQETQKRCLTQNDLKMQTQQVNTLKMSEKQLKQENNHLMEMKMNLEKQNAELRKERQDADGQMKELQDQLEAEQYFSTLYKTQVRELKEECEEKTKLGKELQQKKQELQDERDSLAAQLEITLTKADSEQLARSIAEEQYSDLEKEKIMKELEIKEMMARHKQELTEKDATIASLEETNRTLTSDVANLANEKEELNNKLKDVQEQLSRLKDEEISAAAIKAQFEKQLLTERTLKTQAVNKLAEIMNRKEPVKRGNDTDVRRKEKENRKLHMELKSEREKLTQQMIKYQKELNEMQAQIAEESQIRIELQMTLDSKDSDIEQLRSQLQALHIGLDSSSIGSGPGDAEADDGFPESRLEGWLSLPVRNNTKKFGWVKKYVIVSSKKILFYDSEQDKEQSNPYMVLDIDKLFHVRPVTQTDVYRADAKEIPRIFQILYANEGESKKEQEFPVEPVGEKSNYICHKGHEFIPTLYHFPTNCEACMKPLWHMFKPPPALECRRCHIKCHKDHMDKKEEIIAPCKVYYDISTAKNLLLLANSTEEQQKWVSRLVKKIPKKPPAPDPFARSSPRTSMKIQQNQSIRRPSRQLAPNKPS
Rho-associated protein kinase 1, sequence (Q13464 whole entry, the tested form may be a part): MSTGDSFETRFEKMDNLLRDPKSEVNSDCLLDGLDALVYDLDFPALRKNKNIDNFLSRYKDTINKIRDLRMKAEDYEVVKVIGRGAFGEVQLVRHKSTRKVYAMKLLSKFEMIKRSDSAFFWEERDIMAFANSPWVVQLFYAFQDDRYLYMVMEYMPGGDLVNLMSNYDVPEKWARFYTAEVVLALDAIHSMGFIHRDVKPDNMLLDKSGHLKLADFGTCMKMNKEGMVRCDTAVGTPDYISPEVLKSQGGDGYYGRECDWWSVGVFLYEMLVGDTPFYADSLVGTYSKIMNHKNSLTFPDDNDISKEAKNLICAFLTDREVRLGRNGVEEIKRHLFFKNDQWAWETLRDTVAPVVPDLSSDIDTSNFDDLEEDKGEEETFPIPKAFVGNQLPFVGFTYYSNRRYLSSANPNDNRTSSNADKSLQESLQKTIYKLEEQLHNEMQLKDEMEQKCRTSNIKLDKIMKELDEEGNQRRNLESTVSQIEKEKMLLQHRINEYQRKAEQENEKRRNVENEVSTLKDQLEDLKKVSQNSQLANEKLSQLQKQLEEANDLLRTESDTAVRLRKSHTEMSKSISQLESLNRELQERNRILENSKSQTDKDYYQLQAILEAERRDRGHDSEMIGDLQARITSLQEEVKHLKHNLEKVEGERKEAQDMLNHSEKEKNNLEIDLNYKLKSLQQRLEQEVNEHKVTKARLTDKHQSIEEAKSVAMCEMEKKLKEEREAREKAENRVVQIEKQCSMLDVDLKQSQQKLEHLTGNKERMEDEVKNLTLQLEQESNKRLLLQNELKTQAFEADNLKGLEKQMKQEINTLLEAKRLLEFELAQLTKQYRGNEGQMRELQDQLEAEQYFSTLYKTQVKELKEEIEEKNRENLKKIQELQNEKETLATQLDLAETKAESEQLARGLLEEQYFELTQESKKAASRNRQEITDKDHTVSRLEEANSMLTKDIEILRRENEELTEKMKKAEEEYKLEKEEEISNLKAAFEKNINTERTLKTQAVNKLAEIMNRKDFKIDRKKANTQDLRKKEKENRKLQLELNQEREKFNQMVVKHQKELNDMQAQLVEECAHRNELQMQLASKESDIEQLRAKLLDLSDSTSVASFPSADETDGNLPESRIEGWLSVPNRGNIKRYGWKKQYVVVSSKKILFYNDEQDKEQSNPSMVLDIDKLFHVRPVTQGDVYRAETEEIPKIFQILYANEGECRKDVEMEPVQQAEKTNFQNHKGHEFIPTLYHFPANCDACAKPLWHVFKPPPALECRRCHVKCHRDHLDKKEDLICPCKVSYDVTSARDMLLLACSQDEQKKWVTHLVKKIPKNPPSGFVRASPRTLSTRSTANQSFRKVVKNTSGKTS
LIM domain kinase 2, sequence (P53671 whole entry, the tested form may be a part): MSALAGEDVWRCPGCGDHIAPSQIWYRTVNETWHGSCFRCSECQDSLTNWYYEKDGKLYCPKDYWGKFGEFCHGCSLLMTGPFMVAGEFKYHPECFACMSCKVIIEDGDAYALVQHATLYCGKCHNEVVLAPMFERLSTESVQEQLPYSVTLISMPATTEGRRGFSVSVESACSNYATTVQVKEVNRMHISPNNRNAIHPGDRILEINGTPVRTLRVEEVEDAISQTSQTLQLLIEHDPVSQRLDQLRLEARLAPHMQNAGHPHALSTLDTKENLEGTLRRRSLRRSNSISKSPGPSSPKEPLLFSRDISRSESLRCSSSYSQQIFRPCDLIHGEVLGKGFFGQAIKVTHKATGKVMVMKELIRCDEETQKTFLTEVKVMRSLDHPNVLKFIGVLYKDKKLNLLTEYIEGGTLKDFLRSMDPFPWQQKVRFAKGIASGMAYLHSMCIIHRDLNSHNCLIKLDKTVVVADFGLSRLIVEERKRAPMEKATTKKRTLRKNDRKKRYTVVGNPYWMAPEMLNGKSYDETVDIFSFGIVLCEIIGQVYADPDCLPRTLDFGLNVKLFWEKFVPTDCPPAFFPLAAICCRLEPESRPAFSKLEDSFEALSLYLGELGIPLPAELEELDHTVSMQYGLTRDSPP

| SMILES | IC50 [1] [nM] | inhibition [2] [%] | further results |
| --- | --- | --- | --- |
| Cc1c[nH]c2ncnc(N3CCC(C(=O)Nc4cccc(Br)c4)CC3)c12 | 300 | – | – |
| Cc1ccccc1NC(=O)C1CCN(c2ncnc3[nH]cc(C)c23)CC1 | 11500 | – | – |
| Cc1c[nH]c2ncnc(N3CCN(/C(=N/C#N)Nc4cccc(C(=O)NCCN(C)C)c4)[C@@H](C)C3)c12 | 3.4 | 0 | – |
| COc1cccc(NC(=O)C2CCN(c3ncnc4[nH]cc(C)c34)CC2)c1 | 520 | – | – |
| Cc1c[nH]c2ncnc(N3CCN(C(=O)Nc4cccc(OC(=O)N(C)C)c4)[C@@H](C)C3)c12 | 1.2 | 61 | Activity [3]: -3.2 mmHg; Activity [4]: 3.6 mmHg; Ratio IC50 [5]: > 900; Ratio IC50 [6]: > 100; Activity [7]: 30%; IC50 [8]: 1100 nM; Activity [9]: Dose-dependent effect; IC50 [10]: 3.2 nM; IC50 [11]: 490 nM |
| Cc1c[nH]c2ncnc(N3CCN(/C(=N/C#N)Nc4cccc(C(C)(C)C)c4)[C@@H](C)C3)c12 | – | 10 | – |
| Cc1c[nH]c2ncnc(N3CCN(/C(=N\C#N)Nc4cccc(Br)c4)[C@@H](C)C3)c12 | 0.9 | – | IC50 [8]: 2700 nM; IC50 [10]: 0.5 nM; IC50 [11]: 260 nM |
| Cc1c[nH]c2ncnc(N3CCN(C(=O)Nc4ccc(F)c(Br)c4)[C@@H](C)C3)c12 | 3.2 | 51 | Activity [4]: 3.6 mmHg; Ratio IC50 [5]: 88; Ratio IC50 [6]: 16; IC50 [8]: 280 nM; IC50 [10]: 6.6 nM; IC50 [11]: 51 nM |
| Cc1c[nH]c2ncnc(N3CCN(/C(=N/C#N)Nc4cccc(F)c4)[C@@H](C)C3)c12 | 1.8 | 39 | – |
| Cc1c[nH]c2ncnc(N3CCN(C(=Nc4cccc(C(=O)NC(C)C)c4)NC#N)[C@@H](C)C3)c12 | 3.5 | – | – |
| Cc1c[nH]c2ncnc(N3CCN(C(=Nc4cccc(C(=O)NCCO)c4)NC#N)[C@@H](C)C3)c12 | 0.8 | – | – |
| CC1CN(c2ncnc3[nH]ccc23)CCN1/C(=N/C#N)Nc1cccc(Br)c1 (racemic) | 8.1 | – | – |
| Cc1c[nH]c2ncnc(N3CC4CCC(C3)N4C(=O)Nc3cccc(Br)c3)c12 | 16 | – | – |
| Cc1c[nH]c2ncnc(N3CCN(C(=Nc4cccc(S(=O)(=O)NCCO)c4)NC#N)[C@@H](C)C3)c12 | 2.9 | – | – |
| CC(C)(C)NC[C@H](O)COc1nsnc1N1CCOCC1 [TIMOLOL] | – | – | Activity [3]: -5.2 mmHg |
| Cc1cccc(NC(=O)C2CCN(c3ncnc4[nH]cc(C)c34)CC2)c1 | 650 | – | – |
| Cc1c[nH]c2ncnc(N3CCN(C(=O)Nc4cccc(C(=O)NC(CO)CO)c4)[C@@H](C)C3)c12 | 3 | 27 | – |

| SMILES | IC50 [1] [nM] | inhibition [2] [%] | further results |
| --- | --- | --- | --- |
| Cc1c[nH]c2ncnc(N3CCC(C(=O)Nc4ccccc4)CC3)c12 | 800 | – | – |
| Cc1c[nH]c2ncnc(N3CC4CC3CN4C(=Nc3cccc(Br)c3)NC#N)c12 (stereo not given) | 76 | – | – |
| Cc1c[nH]c2ncnc(N3CCN(/C(=N/C#N)Nc4cccc(Br)c4)[C@@H](C)C3)c12 | – | 50 | Activity [4]: 3.7 mmHg; Ratio IC50 [5]: > 900; Ratio IC50 [6]: > 100; Activity [7]: 30% |
| Cc1c[nH]c2ncnc(N3CCN(/C(=N/C#N)Nc4cccc(S(=O)(=O)NCCO)c4)[C@@H](C)C3)c12 | – | 22 | – |
| Cc1cc2c(N3CCN(/C(=N/C#N)Nc4cccc(Br)c4)[C@@H](C)C3)ncnc2[nH]1 | 4.2 | – | – |
| Cc1c[nH]c2ncnc(N3CCN(/C(=N/C#N)Nc4cccc(Br)c4)[C@@H](C(C)C)C3)c12 | 4.2 | – | – |
| Cc1c[nH]c2ncnc(N3CCN(/C(=N/C#N)Nc4cccc(C(F)(F)F)c4)[C@@H](C)C3)c12 | 1.9 | 12 | – |
| Cc1c[nH]c2ncnc(N3CCN(/C(=N/C#N)Nc4cccc(S(=O)(=O)NC(C)C)c4)[C@@H](C)C3)c12 | 1.7 | 0 | – |
| Cc1c[nH]c2ncnc(N3CCN(/C(=N/C#N)Nc4cccc(C(=O)NCCO)c4)[C@@H](C)C3)c12 | – | 9 | – |
| Cc1c[nH]c2ncnc(N3CCN(/C(=N/S(C)(=O)=O)Nc4cccc(Br)c4)[C@@H](C)C3)c12 | 6.8 | 48 | – |
| C[C@@H](N)c1ccc(C(=O)Nc2ccnc3[nH]ccc23)cc1 [Y-39983] | – | – | Activity [12]: 28% |
| Cc1c[nH]c2ncnc(N3CCN(/C(=N/C#N)Nc4ccc(F)c(Br)c4)[C@@H](C)C3)c12 | 1.5 | 63 | Ratio IC50 [5]: > 900; Ratio IC50 [6]: > 100; IC50 [8]: 2200 nM; IC50 [10]: 3.7 nM; IC50 [11]: 310 nM |
| Cc1c[nH]c2ncnc(N3CCN(C(=O)Nc4cccc(Br)c4)[C@@H](C)C3)c12 | 3.9 | – | – |
| C[C@H]1CN(c2nc(Cl)nc3[nH]ccc23)CCN1C(=Nc1cccc(Br)c1)NC#N | > 1000 | – | – |
| Cc1c[nH]c2ncnc(N3CCN(/C(=N/C#N)Nc4cccc(C#N)c4)[C@@H](C)C3)c12 | 1.2 | 18 | – |
| Cc1c[nH]c2ncnc(N3CCN(/C(=N/C#N)Nc4cccc(C(=O)NC(C)C)c4)[C@@H](C)C3)c12 | – | 0 | – |

The next lines start with results.

| IC50 [1] [nM] | SMILES | inhibition [2] [%] | further results |
| --- | --- | --- | --- |
| 37 | Cc1c[nH]c2ncnc(N3CCN(C(=O)Nc4cccc(Br)c4)[C@H](C)C3)c12 | – | – |
| 5.5 | Cc1c[nH]c2ncnc(N3CCN(C(=O)Nc4cccc(C(=O)NC(C)C)c4)[C@@H](C)C3)c12 | 0 | – |
| 64 | Cc1c[nH]c2ncnc(N3CCC(C(=O)Nc4cccc(Oc5ccccc5)c4)CC3)c12 | – | – |
| 92 | Cc1cccc(NC(=O)N2CCN(c3ncnc4[nH]cc(C)c34)CC2)c1 | – | – |
| 133 | Cc1c[nH]c2ncnc(N3C[C@@H](C)N(C(=O)Nc4cccc(Br)c4)[C@@H](C)C3)c12 | – | – |
| 2.3 | Cc1c[nH]c2ncnc(N3CCN(C(=O)Nc4cccc(Cl)c4)[C@@H](C)C3)c12 | 0 | – |
| 1.1 | Cc1c[nH]c2ncnc(N3CCN(C(=Nc4cccc(C(C)(C)C)c4)NC#N)[C@@H](C)C3)c12 | – | – |
| 1.2 | C[C@H]1CN(c2ncnc3[nH]cc(Cl)c23)CCN1/C(=N/C#N)Nc1cccc(Br)c1 | – | – |
| 1500 | COc1ccc(NC(=O)C2CCN(c3ncnc4[nH]cc(C)c34)CC2)cc1 | – | – |
| 38 | Cc1c[nH]c2ncnc(N3CCN(C(=O)Nc4cccc(Br)c4)CC3)c12 | – | – |
| 11 | Cc1c[nH]c2ncnc(N3CCN(/C(=N/C#N)Nc4cccc(Br)c4)CC3)c12 | – | – |
| 3.9 | Cc1c[nH]c2ncnc(N3C[C@H](C)N(C(=Nc4cccc(Br)c4)NC#N)C[C@H]3C)c12 | – | – |
| 140 | COc1cccc(NC(=O)N2CCN(c3ncnc4[nH]cc(C)c34)CC2)c1 | – | – |
| 3 | Cc1c[nH]c2ncnc(N3CCN(C(=O)Nc4cccc(C(=O)NCCO)c4)[C@@H](C)C3)c12 | 0 | – |
| 1300 | Cc1ccc(NC(=O)C2CCN(c3ncnc4[nH]cc(C)c34)CC2)cc1 | – | – |
| 1.6 | Cc1c[nH]c2ncnc(N3CCN(/C(=N/C#N)Nc4cccc(Cl)c4)[C@@H](C)C3)c12 | 49 | – |
